Data as given in US20150376225A1, “NOVEL COMPOUNDS OF 11BETA-HYDROXY-STEROIDS FOR USE IN MITOCHONDRIA BIOGENESIS AND DISEASES ASSOCIATED WITH MITOCHONDRIAL DYSFUNCTION OR DEPLETION” (SPHAERA PHARMA PVTD. LTD., priority 2013, published 2015).

Test system: BCAEC
Experiment: 3-(4,5-Dimethylthiazol-2-yl)-2,5-diphenyltetrazolium bromide (MTT) assay, mitochondrial function (MTT/Methylene Blue ratio)
Format: cell-based, bovine
Settings: treated for 48 hours
Description: 3-(4,5-Dimethylthiazol-2-yl)-2,5-diphenyltetrazolium bromide (MTT) assay
6,000 BCAEC were seeded into clear 96-well flat bottom plates at 100 μl per well. After starvation, cells were treated for 48 hours with the corresponding compounds. Compounds were changed every 12 and 24 hours (with 100 μl per well of fresh medium). Following the treatment medium was aspirated from plates, and washed once with 100 μl HBSS, subsequently 100 μl per well 0.5 mg/ml MTT in phenol red-free DMEM was added. Plates were incubated for 1 hour at 37° C., and this was followed by aspiration of MTT solution, addition of 100 μl per well DMSO to dissolve formazan crystals, and incubation at 37° C. for 15 minutes. Mitochondrial function was quantified by absorbance was measured at 540 nm with background substraction at 670 nm using. After MTT absorbance measure, media was removed and cells quantify in each well as described elsewhere (Oliver et al, 1989) with some modifications. In brief, 100 μl of 10% formol saline to each well was added, and incubated at 4° C. for 24 hours. Next, formol solution was removed from the wells and 100 μl of filtered 0.1% (w/v) Methylene Blue in 0.01 M borate buffer (pH 8.5) was added to each well. After 30 minutes, excess dye was removed and washed off 3 times with 0.01 M borate buffer (pH 8.5). […] The plates were then gently shaken and incubated for 15 minutes under a bench rocker. Absorbance was measured at 650 nm. The MTT/Methylene Blue ratio was used to quantify the mitochondrial function. Oliver M H, Harrison N K, Bishop J E, Cole P J, Lauren G J. A rapid and convenient assay for counting cells cultured in microwell plates: application for assessment of growth factors. J Cell Sci. 1989, 3:513-8.

Q: Which “MTT Assay” value does the source give for `CC1([C@H]2CC[C@H]3[C@@H]4CC=C5C[C@@H](O)CC[C@]5(C)[C@H]4[C@@H](O)C[C@]23C)OCCO1` [Compound 1001, (3S,8S,9S,10R,11S,13S,14S,17S)-10,13-dimethyl-17-(2-methyl-1,3-dioxolan-2-yl)-2,3,4,7,8,9,10,11,12,13,14,15,16,17-tetradecahydro-1H-cyclopenta[a]phenanthrene-3,11-diol] here?
A: + (+ indicates >110%)

Q: How did the “MTT Assay” value turn out when `CC(O)[C@H]1CC[C@H]2[C@@H]3CC=C4C[C@@H](O)CC[C@]4(C)[C@H]3[C@@H](O)C[C@]12C` (stereo partly drawn) [Compound 1003, (3S,8S,9S,10R,11S,13S,14S,17S)-17-(1-hydroxyethyl)-10,13-dimethyl-2,3,4,7,8,9,10,11,12,13,14,15,16,17-tetradecahydro-1H-cyclopenta[a]phenanthrene-3,11-diol] was run?
A: + (+ indicates >110%)

Q: How did the “MTT Assay” value turn out when `CC(=O)[C@H]1CC[C@H]2[C@@H]3CCC4=CC(=O)CC[C@]4(C)[C@H]3[C@@H](O)C[C@]12C` [Compound 1007, (8S,9S,10R,11S,13S,14S,17S)-17-acetyl-11-hydroxy-10,13-dimethyl-6,7,8,9,10,11,12,13,14,15,16,17-dodecahydro-1H-cyclopenta[a]phenanthren-3(2H)-one] was run?
A: + (+ indicates >110%)
